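Five concentrations, 48 hours, 96-well plates. TGI marks complete inhibition of growth.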
Legend:
Test in all cases: NCI tumour cell line growth inhibition, 48 h
[1] = system: DU-145 prostate
[2] = system: HL-60(TB) leukemia
[3] = system: SK-MEL-2 melanoma
[4] = system: KM12 colon
[5] = system: UACC-257 melanoma
[6] = system: K-562 leukemia
[7] = system: OVCAR-4 ovarian
[8] = system: OVCAR-8 ovarian
[9] = system: MDA-MB-231 breast
[10] = system: A498 renal
[11] = system: HCT-116 colon
[12] = system: SF-295 CNS
[13] = system: UO-31 renal
[14] = system: HOP-62 NSCLC
[15] = system: NCI-H460 lung
[16] = system: SK-MEL-5 melanoma
[17] = system: SK-OV-3 ovarian
[18] = system: NCI-H522 lung
[19] = system: TK-10 renal

Compound	TGI [1] [µM]	TGI [2] [µM]	TGI [3] [µM]	TGI [4] [µM]	TGI [5] [µM]	TGI [6] [µM]	TGI [7] [µM]	TGI [8] [µM]	TGI [9] [µM]	TGI [10] [µM]	TGI [11] [µM]	TGI [12] [µM]	TGI [13] [µM]	TGI [14] [µM]	TGI [15] [µM]	TGI [16] [µM]	TGI [17] [µM]	TGI [18] [µM]	TGI [19] [µM]
CC(=O)Nc1ccc(-c2nc3ccccc3s2)cc1Br	> 91.4	> 100	> 100	> 100	> 100	> 100	> 100	> 93.7	> 89	32.1	> 100	> 100	> 100	56.7	> 100	> 100	75	> 100	–
CC[C@@]1(O)C(=O)OCc2c1cc1n(c2=O)Cc2c-1nc1ccccc1c2/C=N\NC(=O)C[n+]1ccccc1	14.3	> 34.4	> 89.6	> 100	> 84.5	> 100	> 100	> 68.7	> 100	21.4	> 38.1	> 21.3	2.56	–	9.75	2.09	> 100	> 43.5	> 100
O=C1c2c(Br)sc(Br)c2C(NC(=O)C(F)(F)F)C1O (centres undefined)	39.4	> 100	40.9	91.6	36.4	> 100	34.8	44.1	38.5	> 100	32.6	35.7	56.7	–	36	36	36.4	27.3	> 100
CC(=O)OCC1OC(NC(=S)Nn2c(=O)[nH]c3ccccc3c2=O)C(OC(C)=O)C(OC(C)=O)C1OC(C)=O (centres undefined)	> 100	> 100	> 100	> 100	> 100	–	–	> 100	> 100	> 100	> 100	> 100	> 100	> 100	> 100	> 100	> 100	> 100	–
Cc1ccc(S(=O)(=O)NC(=O)NCc2ccc(S(N)(=O)=O)cc2)cc1	> 100	> 100	> 100	> 100	–	> 100	> 100	–	> 100	> 100	> 100	> 100	> 100	> 100	> 100	> 100	> 100	> 100	> 100
NCc1ccc(-c2ccc(CN)s2)s1	> 100	> 100	> 100	> 100	> 100	> 100	> 100	> 100	> 100	23.1	> 100	> 100	> 100	> 100	–	> 100	> 100	> 100	68.7
COc1cc(C2C3=C(COC3=O)OC(C)(C)Oc3cc4c(cc32)OCO4)cc(OC)c1O (centres undefined)	> 100	1.49	> 100	> 44.5	> 100	> 20.3	> 100	> 100	11.5	68	> 20.8	–	> 100	> 100	> 100	19.4	> 100	6.72	> 100
CN(C)CCn1c(=O)c2ccc(NCCNCCO)c3c(=O)c4ccccc4n(c1=O)c23	0.628	0.0197	1.85	2.42	3.14	1.08	5.24	5.64	0.852	0.458	3.4	14.6	0.842	0.851	–	0.813	16.2	0.34	6.95
C=CC(C)(C)n1cc(C2=C3OC(=O)C(c4cn(C(C)(C)C=C)c5ccccc45)=C3OC2=O)c2ccccc21	> 100	> 100	> 100	> 100	> 100	> 100	> 100	> 100	> 100	> 100	> 100	> 100	> 100	> 100	> 100	> 100	–	> 100	> 100
Cc1cc(S(=O)(=O)Nc2nc(N)nc(N3N=CCC3C)n2)c(SCC(=O)O)cc1Cl (centres undefined)	> 10	> 10	> 10	> 10	> 10	> 10	> 10	> 10	> 10	> 10	> 10	> 10	–	> 10	> 10	> 10	> 10	> 10	> 10
CCOC(=O)/C(C#N)=C/Nc1c(C)n(C)n(-c2ccccc2)c1=O	> 100	> 100	> 100	> 100	> 100	> 100	> 100	> 100	> 100	> 100	> 100	> 100	> 100	–	–	> 100	> 100	> 100	> 100

— PubChem BioAssay (NCI)
